Experimental data reported in PubChem BioAssay (NCI).
“And” between values parts separate entries of the source, which are not always exact repeats. Identical values can stand only once.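 How tested: cells in 96-well plates exposed to compound for 48 hours at five concentrations. GI50 = concentration required for 50% inhibition of growth. The concentration for full growth arrest is given as TGI.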

Assays:
Assay in all cases: NCI tumour cell line growth inhibition, 48 h
SNB-78 CNS = system: SNB-78 CNS
XF 498 CNS = system: XF 498 CNS
DLD-1 colon = system: DLD-1 colon
HOP-18 NSCLC = system: HOP-18 NSCLC
M19-MEL melanoma = system: M19-MEL melanoma
DMS 273 small cell lung = system: DMS 273 small cell lung
LXFL 529 NSCLC = system: LXFL 529 NSCLC
RXF-631 renal = system: RXF-631 renal
DMS 114 small cell lung = system: DMS 114 small cell lung
SN12K1 renal = system: SN12K1 renal
P388/ADR leukemia = system: P388/ADR leukemia
P388 leukemia = system: P388 leukemia

SMILES | TGI (SNB-78 CNS) | TGI (XF 498 CNS) | TGI (DLD-1 colon) | TGI (HOP-18 NSCLC) | TGI (M19-MEL melanoma) | TGI (DMS 273 small cell lung) | TGI (LXFL 529 NSCLC) | TGI (RXF-631 renal) | TGI (DMS 114 small cell lung) | GI50 (SNB-78 CNS) | GI50 (DLD-1 colon) | GI50 (HOP-18 NSCLC) | GI50 (DMS 273 small cell lung) | GI50 (XF 498 CNS) | GI50 (DMS 114 small cell lung) | TGI (SN12K1 renal) | GI50 (M19-MEL melanoma) | TGI (P388/ADR leukemia) | TGI (P388 leukemia) | GI50 (LXFL 529 NSCLC)
O=c1c2ccccc2n2n1CC(O)C2 (configuration not stated) | > 100 µM | > 100 µM | > 100 µM | > 100 µM | > 100 µM | > 100 µM | – | – | – | – | – | – | – | – | – | – | – | – | – | –
CCOC(=O)C1=C(O)CSC1=Nc1ccccc1 | > 100 µM | – | > 100 µM | – | > 100 µM | > 100 µM | > 100 µM | > 100 µM | – | – | – | – | – | – | – | – | – | – | – | –
O=C1N(c2ccccc2)C(=O)C2(SC=NN2Cc2ccccc2)N1c1ccccc1 (configuration not stated) | > 100 µM | > 100 µM | > 100 µM | > 100 µM | > 100 µM | – | > 100 µM | – | > 100 µM | – | – | – | – | – | – | – | – | – | – | –
C[C@]12CCc3nonc3C1CC[C@@H]1C2CC[C@]2(C)NC(=O)CCC12 (some centres not stated) | > 100 µM | > 100 µM | – | > 100 µM | > 100 µM | > 100 µM | > 100 µM | > 100 µM | – | – | – | – | – | – | – | – | – | – | – | –
O=C1c2ccccc2C(=O)c2c(NCCNCCO)ccc(O)c21 | 20.2 µM | 18.8 µM | 15.6 µM | 21.4 µM | 12.4 µM | 10.7 µM | 15.5 µM | – | 17.4 µM | – | – | – | – | – | – | – | – | – | – | –
COc1ccc(C(=O)C(C(=O)C(=O)Nc2ccc(Cl)c(Cl)c2)c2ccc(OC)cc2)cc1 (configuration not stated) | > 100 µM | > 100 µM | > 100 µM | > 100 µM | > 100 µM | > 100 µM | > 100 µM | – | > 100 µM | – | – | – | – | – | – | – | – | – | – | –
Cc1c(C(=O)C/C(=N/NC(=O)C[n+]2ccccc2)C(=O)Nc2ccccc2)[n+](=O)c2ccccc2n1O | > 100 µM | > 100 µM | > 100 µM | > 100 µM | > 100 µM | > 100 µM | > 100 µM | > 100 µM | > 100 µM | – | – | – | – | – | – | – | – | – | – | –
O=c1cccccc1NCCCCCCNc1cccccc1=O | > 100 µM | – | > 100 µM | > 100 µM | > 100 µM | > 100 µM | > 100 µM | > 100 µM | > 100 µM | – | – | – | – | – | – | – | – | – | – | –
CC(=O)O[C@]1(C)OC(=O)[C@@H](C)N1[N+](=O)[O-] | > 100 µM | – | > 100 µM | > 100 µM | > 100 µM | > 100 µM | > 100 µM | – | > 100 µM | – | – | – | – | – | – | – | – | – | – | –
CN[C@@H](C)[C@@H](N)c1ccccc1 | > 100 µM | – | > 100 µM | > 100 µM | – | > 100 µM | > 100 µM | > 100 µM | – | – | – | – | – | – | – | – | – | – | – | –
CC/C(=C(/CC)c1ccc([O-])cc1)c1ccc([O-])cc1.CC/C(=C(\CC)c1ccc([O-])cc1)c1ccc([O-])cc1.O=C([CH-]C(=O)c1ccccc1)c1ccccc1.O=C([CH-]C(=O)c1ccccc1)c1ccccc1.O=C([CH-]C(=O)c1ccccc1)c1ccccc1.O=C([CH-]C(=O)c1ccccc1)c1ccccc1.[Ti+4].[Ti+4] | > 100 µM | – | 53.1 µM | > 100 µM | – | > 100 µM | – | – | – | 72.4 µM | 19.8 µM | 83.4 µM | 28.7 µM | – | – | – | – | – | – | –
COc1c(NC(C)=O)cc(C)cc1NC(C)=O | > 100 µM | > 100 µM | > 100 µM | – | > 100 µM | > 100 µM | – | – | > 100 µM | – | – | – | – | – | – | – | – | – | – | –
COC(=O)C1=C(C(=O)OC)C23CC1C1C(C(=O)OC)=C(C(=O)OC)C12C1C=CC3C2C(=O)OC(=O)C21 (configuration not stated) | > 100 µM | > 100 µM | > 100 µM | – | > 100 µM | > 100 µM | > 100 µM | > 100 µM | 80.3 µM | – | – | – | – | – | – | – | – | – | – | –
O=P(NC12CC3CC(CC(C3)C1)C2)(N1CC1)N1CC1 | > 100 µM | – | > 100 µM | > 100 µM | > 100 µM | > 100 µM | > 100 µM | – | > 100 µM | – | – | – | – | – | – | – | – | – | – | –
CN(N=O)C(=O)N[C@@H](C=O)[C@@H](O)[C@H](O)[C@H](O)CO | 608 µM | > 750 µM | > 750 µM | 216 µM and > 750 µM | 629 µM and > 750 µM | 575 µM and > 750 µM | > 750 µM | – | 599 µM and > 750 µM | – | > 750 µM | > 750 µM | > 750 µM | > 750 µM | > 750 µM | 546 µM | 619 µM | 635 µM | > 504 µM | –
O=C1OCCC1C(O)C1c2ccccc2-c2ccccc21 (configuration not stated) | > 100 µM | > 100 µM | > 100 µM | – | > 100 µM | – | > 100 µM | – | > 100 µM | – | – | – | – | – | – | – | – | – | – | –
CC1(C)CCc2cc3c(cc2O1)OCC1c2cc4c(cc2OC31)OCO4 (configuration not stated) | – | > 100 µM | > 100 µM | > 100 µM | > 100 µM | – | > 100 µM | > 100 µM | > 100 µM | – | – | – | – | – | – | – | – | – | – | –
O=C([O][Hg][CH2]C1COC([CH2][Hg][O]C(=O)c2ccccc2)CO1)c1ccccc1 (configuration not stated) | 32.6 µM | 31.6 µM | 7.25 µM | 23.5 µM | 22.9 µM | 9.83 µM | 2.86 µM | – | 28.8 µM | 12.2 µM | 2.59 µM | 10.8 µM | 4.51 µM | 17.7 µM | 15 µM | – | 9.67 µM | – | – | 1.53 µM
COc1ccc2c(c1)[n+]([O-])c(-c1ccccc1)c(N)[n+]2[O-] | > 100 µM | 82.6 µM | > 100 µM | 97 µM | > 100 µM | > 100 µM | 98.7 µM | – | 79.2 µM | – | – | – | – | – | – | – | – | – | – | –
CC(=O)c1cccc(NC(=O)C(=O)C(C2OC(=O)c3ccccc32)[N+](=O)[O-])c1 (configuration not stated) | > 100 µM | > 100 µM | > 100 µM | – | > 100 µM | – | > 100 µM | > 100 µM | > 100 µM | – | – | – | – | – | – | – | – | – | – | –
COc1ccc(N=Nc2c(-c3ccccc3)nn(C(=O)CC(=O)Nc3cccc(Cl)c3)c2-c2ccccc2)cc1 | – | > 100 µM | > 100 µM | > 100 µM | > 100 µM | > 100 µM | > 100 µM | – | > 100 µM | – | – | – | – | – | – | – | – | – | – | –
CC(C)(C)CC(C)(C)c1cc2c(O)c(c1)Cc1cc(C(C)(C)CC(C)(C)C)cc(c1O)Cc1cc(C(C)(C)CC(C)(C)C)cc(c1O)Cc1cc(C(C)(C)CC(C)(C)C)cc(c1O)Cc1cc(C(C)(C)CC(C)(C)C)cc(c1O)Cc1cc(C(C)(C)CC(C)(C)C)cc(c1O)C2 | > 100 µM | > 100 µM | > 100 µM | – | > 100 µM | > 100 µM | > 100 µM | > 100 µM | > 100 µM | – | – | – | – | – | – | – | – | – | – | –
